Measured values reported in PubChem BioAssay (NCI).
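Tested at 5 concentrations; 48 h exposure; 96-well plates; endpoints linearly interpolated, else capped at highest concentration. TGI: concentration producing complete growth inhibition.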 Where a SMILES comes first, the peptide text is derived from it. The star is where a group is joined. Cbz = O=C(OCc1ccccc1)*

Key:
Experiment in all cases: inhibition of tumour cell growth, NCI panel, 48 h
ACHN renal = test system: ACHN renal
SN12C renal = test system: SN12C renal
KM12 colon = test system: KM12 colon
CAKI-1 renal = test system: CAKI-1 renal
HCT-116 colon = test system: HCT-116 colon
BT-549 breast = test system: BT-549 breast
T-47D breast = test system: T-47D breast
RXF 393 renal = test system: RXF 393 renal
SNB-75 CNS = test system: SNB-75 CNS
HOP-92 NSCLC = test system: HOP-92 NSCLC
A549 NSCLC = test system: A549 NSCLC

Row | SMILES | TGI (ACHN renal) | TGI (SN12C renal) | TGI (KM12 colon) | TGI (CAKI-1 renal) | TGI (HCT-116 colon) | TGI (BT-549 breast) | TGI (T-47D breast) | TGI (RXF 393 renal) | TGI (SNB-75 CNS) | TGI (HOP-92 NSCLC) | TGI (A549 NSCLC)
1 | CC1OC(OC2C(O)COC(OC3C(C)OC(OC4C(OC(=O)[C@]56CCC(C)(C)C[C@@H]5C5=CCC7[C@@]8(C)C[C@H](O)[C@H](OC9OC(CO)C(O)C(O)C9O)[C@@](C)(CO)[C@@H]8CC[C@@]7(C)[C@]5(C)CC6)OCC(O)C4O)C(O)C3OC3OCC(O)(CO)C3O)C2O)C(O)C(O)C1O (some centres undefined) | 34 µM | 16.4 µM | 52.4 µM | 13.8 µM | 30.6 µM | 38 µM | 51.1 µM | 34.1 µM | 39.6 µM | 50.3 µM | 18 µM
2 | Cc1c(N=Nc2ccc(Cl)cc2)c(-c2ccccc2)n(C2OC(CO)C(O)C(O)C2O)c(=S)c1C#N (centres undefined) | 31.1 µM | 32.5 µM | 35.4 µM | 34 µM | 28.2 µM | 29.5 µM | 44.2 µM | 28.7 µM | 32.7 µM | 28.8 µM | 35.3 µM
3 | O=C1/C(=C/c2ccccc2S)N=C(c2ccccc2)N1c1nc2c(Cl)cc(Cl)cc2s1 | 58 µM | 44.2 µM | 88.1 µM | > 100 µM | 36.5 µM | > 100 µM | > 100 µM | 58 µM | 64.8 µM | 49.6 µM | 54.3 µM
4 | CCC(C)OC(=O)/C(Br)=C1/OC(=O)c2ccccc2-c2ccccc21 (centres undefined) | > 100 µM | > 100 µM | 61 µM | > 100 µM | 36.6 µM | 37.1 µM | > 100 µM | 21.5 µM | > 100 µM | 81.9 µM | > 100 µM
5 | Cn1c(=O)c2c(nc(Cc3ccccc3)n2CC(=O)O)n(C)c1=O | > 100 µM | > 100 µM | > 100 µM | > 100 µM | > 100 µM | > 100 µM | > 100 µM | > 100 µM | > 100 µM | > 100 µM | > 100 µM
6 | C/C=C(/C)C(=O)O[C@@H]1CCN2CC[C@H](COC(=O)/C(=C/C)CO)C12 (some centres undefined) | > 100 µM | > 100 µM | > 100 µM | > 100 µM | > 100 µM | > 100 µM | > 100 µM | > 100 µM | > 100 µM | > 100 µM | > 100 µM
7 | COC(CNC(=O)C(C)NC(=O)/C=C/c1ccccc1)OC (centres undefined) | > 100 µM | > 100 µM | > 100 µM | > 100 µM | > 100 µM | > 100 µM | > 100 µM | > 100 µM | > 100 µM | > 100 µM | > 100 µM
8 | CN1CCN(C(=S)N2CCN(C)CC2)CC1 | > 100 µM | > 100 µM | > 100 µM | > 100 µM | > 100 µM | > 100 µM | > 100 µM | > 100 µM | > 26.3 µM | > 100 µM | > 100 µM
9 | O=C(O)CCC(NC(=O)OCc1ccccc1)C(=O)NC(Cc1cnc[nH]1)C(=O)O (stereo not drawn) (Cbz-Glu-His-OH; configuration not given here) | > 100 µM | > 100 µM | > 100 µM | > 100 µM | > 100 µM | > 100 µM | > 100 µM | > 100 µM | > 100 µM | > 100 µM | > 100 µM
10 | Clc1ccc(C2C3COc4ccccc4C3=NN2c2ccccc2)cc1 (centres undefined) | > 100 µM | > 100 µM | > 100 µM | > 100 µM | > 100 µM | > 100 µM | > 100 µM | > 100 µM | 98.9 µM | > 100 µM | > 100 µM
11 | COC(=O)C1=C(O)C(C(=O)OC)[C@]2(O)[C@H](C(=O)OC)[C@H]1C[C@@H](c1ccc(C(F)(F)F)cc1)[C@H]2C(=O)OC (some centres undefined) | > 100 µM | 27.6 µM | 53.3 µM | > 100 µM | 5.96 µM | > 100 µM | > 100 µM | 6.5 µM | 26.7 µM | 34 µM | > 100 µM
12 | CC(=O)c1[nH]c(NCc2ccccc2)c(C(=S)Nc2ccccc2)c1N | 85.2 µM | 50.8 µM | 36.9 µM | 98.2 µM | 34.1 µM | 64.7 µM | 63.3 µM | 35.6 µM | > 100 µM | 59.3 µM | 93.9 µM
13 | COc1cc(C2c3cc4c(cc3OC3(OC)COC(=O)C23)OCO4)cc(OC)c1OC(C)=O (centres undefined) | > 100 µM | > 100 µM | > 100 µM | > 100 µM | 38.7 µM | > 100 µM | > 100 µM | 7.49 µM | > 62.9 µM | > 100 µM | > 100 µM
14 | Cc1[nH]nc(C(F)(F)F)c1N=NN1CCOCC1 | 17.7 µM | 30.8 µM | 21.9 µM | 4.67 µM | 6.12 µM | 25.1 µM | > 42.8 µM | 25.1 µM | 26.7 µM | 8.32 µM | 24.7 µM
